# Experimental data published in patent US7871987B2, “Ester derivatives of ascorbic and 2-keto acid saccharides” (Dow Corning Corporation, priority 2004, dated 2011).
# “And” between values parts separate entries of the source, which are not always exact repeats. Equal entries are not always repeated.
# Columns and labels:
# [1] = Dispersibility in carriers (caprylic/capric triglyceride, cyclopentasiloxane, deionized water); type: physicochemical
# Protocol: a) Approximately 7.2 g of a sample of a material of the present invention comprising an undecyl ascorbate group on one end of the short chain dimethylsiloxane (Formula=Si(CH3)3-[Si(CH3)2]8—[CH2]10—COO-Ascorbate), with a calculated molecular weight of 1082) was weighed into a glass vial. Liponate CG (INCI name: caprylic/capric triglyceride) was added to the vial to bring the net weight to 20 g. The vial was warmed in a water bath set at 50° C. […] A sample of ascorbyl palmitate obtained from DSM was also tested for dispersibility in Liponate CG. Several concentrations were tested. The lowest concentration tested was made by weighing approximately 2.3 g of ascorbyl palmitate into a glass vial and then adding caprylic/capric triglyceride to bring the net weight to 20 g. […] The silicone was added to the vial to bring the net weight to 20 g. […] This mixture thickened upon cooling to room temperature. To determine if the mixture was a stable dispersion or an unstable suspension, the mixture was centrifuged in a bench top laboratory centrifuge at 3000 rpm for approximately 30 minutes. […] The amount of white material was small (much less than the amount of siloxane undecyl ascorbate that was used) and it was later determined that the white material was most likely unreacted ascorbic acid. A sample of ascorbyl palmitate obtained from DSM was tested for dispersibility in Dow Corning® 245 Fluid. Several concentrations were tested. The lowest concentration tested was made by weighing approximately 2.3 g of ascorbyl palmitate into a glass vial and then adding Dow Corning® 245 Fluid to bring the net weight to 20 g. […] Deionized water was added to bring the total net weight to 3.5 g. The vial was placed in a water bath set at 60° C. and the disiloxane material began to disperse after a few minutes. The vial was pulled out of the water bath periodically over the next 10-15 minutes. […] Upon cooling the vial was examined to determine if all of the test material had been dispersed. It was difficult to tell due to the hazy appearance of the sample. The experiment was repeated with approximately 0.17 of the disiloxane diluted to 3.5 g with deionized water. […] Ascorbyl palmitate obtained from DSM was tested for dispersibility in deionized water.
# [2] = test system: Melanoderm tissue model MEL 300 A; assay: Melanin content / skin lightening assay in MelanoDerm tissue model; type: cell-based, human; conditions: for Melanin concentration vs. water: Day 10, after 6 applications; for Melanin Concentration at Day 10 (Avg.): after 6 applications, 10 μL in DMI (kojic acid 25 μL, 1% in water)
# Text: (§1) This example illustrates cell viability properties and efficacy of skin lightening formulations according to the present invention. For purposes of these examples, DP2 and DP15 both refer to a bis-ascorbyl ester of a (10-carboxydecyl)-terminated dimethylsiloxane, but with the former having two degrees of polymerization, and the latter having an average of 15 degrees of polymerization (15+/−5). In particular, three formulations according to the present invention, water (a negative control), 1% kojic acid (Sigma, Wis.) in water (positive control), and 2.3% ascorbyl palmitate in DMI (dimethyl isosorbide from Uniqema Americas, representative of a currently commercially available skin-lightening compound), were assayed and compared for cell viability and skin lightening efficacy (see Table 4). The assays were carried out using Melanoderm tissue model MEL 300 A cell line (MelanoDerm™ tissue model available from MatTek, Ashland, Mass.). This melanoderm model consists of normal, human-derived epidermal keratinocytes and melanocytes that have been co-cultured to form a multilayer, highly differentiated model of human epidermis.
# Table 6 (see FIG. 4(a)) sets forth the […] after 6 applications of each formulation as indicated. Melanin concentration (ug/ml) was lower (p<0.05) in the positive control (kojic acid) and in Ascorbyl palmitate, DP2, and DP2+ascorbic acid. Table 7 (see FIG. 4(b) also sets forth the melanocyte concentration on Day 10, after six applications of the test formulations. Melanin concentration (ug/ml) was higher (p<0.05) in DP2, with no difference from DP2+ascorbic acid or DPI 5. However, p value for DP15 had high variability and statistical difference was borderline (p=0.06)
# [3] = test system: Melanoderm tissue model MEL 300 A; assay: Viability by MTT assay (MatTek MTT ET-50 protocol); type: cell-based, human; conditions: for MTT reading (individual readings): listed as DP2/DMI
# Text: as §1
# Duplicate samples of each of the formulations in Table 4 were dosed and tested for 48 hours for cell viability by MTT assay (MatTek MTT ET-50 protocol). The volume of water and kojic acid used was 25 ul.
# [4] = approximately 2.3 g brought to 20 g (lowest concentration), 50° C. to 90° C. for 20-30 minutes
# [5] = first duplicate sample, 10 uL dose, 48 hours
# [6] = second duplicate sample, 10 uL dose, 48 hours
structure (smiles),measurement,setting,value
"CCCCCCCCCCCCCCCC(=O)OC[C@H](O)[C@H]1OC(=O)C(O)=C1O [Ascorbyl Palmitate, Ascorbyl palmitate, reference compound]",dispersibility in Dow Corning 245 Fluid (cyclopentasiloxane),[1]; [4],would not disperse
same,dispersibility in Liponate CG (caprylic/capric triglyceride),[1]; [4],would not disperse
same,dispersibility in deionized water,[1]; concentrations comparable to those tested for the disiloxane test material,not dispersible
same,Melanin concentration vs. water,[2]; p<0.05,lower
same,Melanin Concentration at Day 10 (Avg.),[2],34.14 µg/mL
same,% Viability (total average),"[3]; human, 48 h, 2.3 %",96.04%
same,Total average (MTT reading),"[3]; human, 48 h, 2.3 %",1.4495
"C[Si](C)(CCCCCCCCCCC(=O)OCC(O)C1OC(=O)C(O)=C1O)O[Si](C)(C)CCCCCCCCCCC(=O)OCC(O)C1OC(=O)C(O)=C1O (stereo not shown) [DP2, bis-ascorbyl ester of a (10-carboxydecyl)-terminated dimethylsiloxane]",dispersibility in deionized water,"[1]; approximately 0.17 diluted to 3.5 g, warmed in water bath","thinner, less hazy dispersion"
same,dispersibility in deionized water,"[1]; approximately 0.35 g brought to 3.5 g, water bath 60° C.",thick hazy dispersion
same,stability of dispersions in deionized water,"[1]; both dispersions, no sign of separation or settling",stable for several weeks
same,Melanin concentration vs. water,[2]; p<0.05,lower
same,Melanin concentration vs. ascorbyl palmitate,"[2]; Day 10, after six applications, p<0.05",higher
same,Melanin Concentration at Day 10 (Avg.),[2],44.40 µg/mL
same,cytotoxicity,"[3]; 10 uL dose, in DMI",does not cause cytotoxicity
same,Total average (MTT reading),"[3]; both duplicate samples, 10 uL dose, 48 hours",1.514
same,% Viability (total average),"[3]; both duplicate samples, vs water, 10 uL dose, 48 hours",100.31%
same,Average (MTT reading),[3]; [5],1.417
same,MTT reading (individual readings),[3]; [5],1.433 and 1.401
same,% Viability,"[3]; first duplicate sample, vs water, 10 uL dose, 48 hours",91.24%
same,cell viability,[3]; in DMI,> 90%
same,Average (MTT reading),[3]; [6],1.611
same,MTT reading (individual readings),[3]; [6],1.619 and 1.603
same,% Viability,"[3]; second duplicate sample, vs water, 10 uL dose, 48 hours",109.93%
"O=c1cc(CO)occ1O [Kojic Acid, kojic acid]",Melanin concentration vs. water,[2]; p<0.05,lower
same,Melanin Concentration at Day 10 (Avg.),[2],25.20 µg/mL
